Results on twelve compounds are retold here after patent US20250136619A1, “HETEROBIFUNCTIONAL COMPOUNDS AND THEIR USE IN TREATING DISEASE” (HALDA THERAPEUTICS OPCO, INC., priority 2021, published 2025).

Test [1] addresses BTK (Homo sapiens (Human), UniProt Q06187). Kind of test: KdELECT assay for binding affinity to BTK. Summed up:
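Competition binding of test compound against bead-immobilized biotinylated ligand; kinase as T7 phage fusion or HEK-293-expressed DNA-tagged protein. 11-point 3-fold dilution, 0.9% DMSO final, 1 h room temperature with shaking. Bound kinase eluted with 0.5 μM non-biotinylated ligand and quantified by qPCR; Kd derived.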

The target of test [2] is mTOR (Homo sapiens (Human), UniProt P42345). The test can be described thus: KdELECT assay for binding affinity to mTOR. The protocol: (§1) Compounds were tested using a KdELECT assay. Kinase-tagged T7 phage strains were prepared in an E. coli host derived from the BL21 strain. E. coli were grown to log-phase and infected with T7 phage and incubated with shaking at 32° C. until lysis. The lysates were centrifuged and filtered to remove cell debris. The remaining kinases were produced in HEK-293 cells and subsequently tagged with DNA for qPCR detection. Streptavidin-coated magnetic beads were treated with biotinylated small molecule ligands for 30 minutes at room temperature to generate affinity resins for kinase assays. The liganded beads were blocked with excess biotin and washed with blocking buffer (SeaBlock (Pierce), 1% BSA, 0.05% Tween 20, 1 mM DTT) to remove unbound ligand and to reduce non-specific binding. Binding reactions were assembled by combining kinases, liganded affinity beads, and test compounds in 1×binding buffer (20% SeaBlock, 0.17×PBS, 0.05% Tween 20, 6 mM DTT). Test compounds were prepared as 111X stocks in 100% DMSO. Kd values were determined using an 11-point 3-fold compound dilution series with three DMSO control points. All compounds for Kd measurements are distributed by acoustic transfer (non-contact dispensing) in 100% DMSO. The compounds were then diluted directly into the assays such that the final concentration of DMSO was 0.9%. All reactions performed in polypropylene 384-well plate. Each was a final volume of 0.02 mL. The assay plates were incubated at room temperature with shaking for 1 hour and the affinity beads were washed with wash buffer (1×PBS, 0.05% Tween 20). The beads were then re-suspended in elution buffer (1×PBS, 0.05% Tween 20, 0.5 μM nonbiotinylated affinity ligand) and incubated at room temperature with shaking for 30 minutes. The kinase concentration in the eluates was measured by qPCR.

The target of test [3] is CDK1 (Homo sapiens (Human), UniProt P06493). The test can be described thus: KdELECT assay for binding affinity to CDK1. The protocol: as §1
Sequence of CDK1 (P06493 whole entry): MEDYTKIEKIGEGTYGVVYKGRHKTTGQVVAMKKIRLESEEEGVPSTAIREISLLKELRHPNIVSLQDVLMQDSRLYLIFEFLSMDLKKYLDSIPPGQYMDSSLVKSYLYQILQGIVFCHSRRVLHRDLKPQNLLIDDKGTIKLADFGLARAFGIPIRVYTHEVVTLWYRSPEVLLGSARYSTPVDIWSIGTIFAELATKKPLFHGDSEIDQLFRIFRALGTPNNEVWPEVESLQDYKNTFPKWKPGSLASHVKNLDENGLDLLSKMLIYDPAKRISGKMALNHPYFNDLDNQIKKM
Test [4] addresses BRD4-BD2 (Homo sapiens (Human), UniProt O60885). The test can be described thus: bromoKdELECT assay for binding affinity to BRD4-BD2. The protocol:
(§2) Compounds were tested using a bromoKdELECT assay. T7 phage strains displaying bromodomains were grown in parallel in 24-well blocks in an E. coli host derived from the BL21 strain. E. coli were grown to log-phase and infected with T7 phage from a frozen stock (multiplicity of infection=0.4) and incubated with shaking at 32° C. until lysis (90-150 minutes). The lysates were centrifuged (5,000×g) and filtered (0.2 μm) to remove cell debris. Streptavidin-coated magnetic beads were treated with biotinylated small molecule or acetylated peptide ligands for 30 minutes at room temperature to generate affinity resins for bromodomain assays. The liganded beads were blocked with excess biotin and washed with blocking buffer (SeaBlock (Pierce), 1% BSA, 0.05% Tween 20, 1 mM DTT) to remove unbound ligand and to reduce nonspecific phage binding. Binding reactions were assembled by combining bromodomains, liganded affinity beads, and test compounds in 1×binding buffer (17% SeaBlock, 0.33×PBS, 0.04% Tween 20, 0.02% BSA, 0.004% Sodium azide, 7.4 mM DTT). Test compounds were prepared as 1000X stocks in 100% DMSO. Kds were determined using an 11-point 3-fold compound dilution series with one DMSO control point. All compounds for Kd measurements are distributed by acoustic transfer (non-contact dispensing) in 100% DMSO. The compounds were then diluted directly into the assays such that the final concentration of DMSO was 0.09%. All reactions performed in polypropylene 384-well plates. Each was a final volume of 0.02 ml. The assay plates were incubated at room temperature with shaking for 1 hour and the affinity beads were washed with wash buffer (1×PBS, 0.05% Tween 20). The beads were then resuspended in elution buffer (1×PBS, 0.05% Tween 20, 2 μM non-biotinylated affinity ligand) and incubated at room temperature with shaking for 30 minutes. The bromodomain concentration in the eluates was measured by qPCR.

In test [5] the target is BRD4-BD1 (Homo sapiens (Human), UniProt O60885). The test can be described thus: bromoKdELECT assay for binding affinity to BRD4-BD1. The protocol:
as §2

The target in test [6] is KIF11 (Homo sapiens (Human), UniProt P52732). The test can be described thus: Enzyme-coupled ATPase assay for inhibition of KIF11. To be noted: KIF11 ATPase rate, 1 mM ATP. It is filed as biochemical. The procedure: The ATPase rate for Kif11 was monitored using an enzyme-coupled assay. Porcine brain microtubules (Cat #MT002) were purchased from Cytoskeleton (Denver, CO) and polymerized as per manufacturer's instructions and stored at 1 mg/ml at −80° C. GST-tagged Kif11/Eg5 (Cat #EG01-XL) and the Kinesin ELIPA Biochem Kit (Cat #BK060) was also purchased from Cytoskeleton. Taxol, microtubules, 7-methylthioguanosine (MESG), and purine nucleoside phosphorylase (PNP) were added to final concentrations of […], 0.05 mg/mL, […], 1U/m, 1 mM in EPLIA Reaction Buffer and allowed to incubate at room temperature for 15 minutes under rocking. Kif11 was then added at a final concentration of […] and allowed to incubate at room temperature for an additional 15 minutes. Master mix ([…]) was added to a black 384-well plate (Corning 3575), to which […] of DMSO or compound were added to appropriate wells. Plates were incubated at room temperature for 2 hours. ATPase reactions were initiated by addition of 1 mM ATP and monitored by OD340 every 1 minute over the course of 2 hours. The rate of the reaction was taken from the linear part of the resulting curve. IC50 was determined by plotting inhibitor concentration v. ATPase rate.
Sequence of KIF11 (P52732 1-368): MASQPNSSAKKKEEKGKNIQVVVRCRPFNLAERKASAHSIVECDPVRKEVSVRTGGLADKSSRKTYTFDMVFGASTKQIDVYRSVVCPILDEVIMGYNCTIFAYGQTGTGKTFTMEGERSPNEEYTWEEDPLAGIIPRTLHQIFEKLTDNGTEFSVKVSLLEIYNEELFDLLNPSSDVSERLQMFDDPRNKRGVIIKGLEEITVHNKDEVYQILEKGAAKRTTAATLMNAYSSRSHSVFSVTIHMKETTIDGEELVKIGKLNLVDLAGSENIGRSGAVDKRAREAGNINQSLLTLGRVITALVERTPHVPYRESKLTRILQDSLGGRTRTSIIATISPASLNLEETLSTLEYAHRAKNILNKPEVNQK

Sequence of BTK (Q06187 whole entry, the tested form may be a part): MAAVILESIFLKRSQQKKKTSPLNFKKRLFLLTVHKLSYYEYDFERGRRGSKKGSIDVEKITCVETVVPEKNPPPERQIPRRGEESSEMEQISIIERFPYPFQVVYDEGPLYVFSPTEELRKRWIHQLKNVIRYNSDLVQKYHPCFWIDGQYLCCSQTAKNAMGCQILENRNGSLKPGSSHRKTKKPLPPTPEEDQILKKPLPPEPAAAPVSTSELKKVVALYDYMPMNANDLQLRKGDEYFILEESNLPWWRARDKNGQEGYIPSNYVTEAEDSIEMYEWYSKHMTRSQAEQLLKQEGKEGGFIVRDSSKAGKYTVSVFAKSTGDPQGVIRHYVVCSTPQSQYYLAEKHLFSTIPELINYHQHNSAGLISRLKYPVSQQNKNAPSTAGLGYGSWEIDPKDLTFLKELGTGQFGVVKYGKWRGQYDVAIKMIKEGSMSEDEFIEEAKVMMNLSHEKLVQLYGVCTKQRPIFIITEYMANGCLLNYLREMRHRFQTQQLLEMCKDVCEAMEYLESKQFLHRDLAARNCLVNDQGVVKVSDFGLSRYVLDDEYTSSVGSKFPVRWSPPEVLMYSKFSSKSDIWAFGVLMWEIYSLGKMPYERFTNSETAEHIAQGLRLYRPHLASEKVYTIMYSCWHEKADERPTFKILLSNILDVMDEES

Broadly, the Kd is the concentration at which binding is half-saturated. Read a high Kd as weaker binding. Consider `C[C@@H]1COCCN1c1nc(N2CCOC[C@H]2C)c2ccc(-c3cccc(C(=O)NCCCCCCCCOc4ccc(C(=O)NC5C(C)(C)C(Oc6ccc(C#N)c(Cl)c6)C5(C)C)cc4)c3)nc2n1` (stereo partly drawn) [Compound I-8, 3-[2,4-bis[(3R)-3-methylmorpholin-4-yl]pyrido[2,3-d]pyrimidin-7-yl]-N-[8-[4-[[3-(3-chloro-4-cyano-phenoxy)-2,2,4,4-tetramethyl-cyclobutyl]carbamoyl]phenoxy]octyl]benzamide], for which the Kd in test [1] was 50 to 500 nM; in test [2], greater than 2500 nM.

With `NC(=O)c1c(F)cccc1Nc1nc(Nc2ccc(S(=O)(=O)NCCOCCOC/C=C/C(=O)N3CCC[C@@H](n4nc(-c5ccc(Oc6ccccc6)cc5)c5c(N)ncnc54)C3)cc2)ncc1Br` [Compound I-13, 2-[[2-[4-[2-[2-[(E)-4-[(3R)-3-[4-amino-3-(4-phenoxyphenyl)pyrazolo[3,4-d]pyrimidin-1-yl]-1-piperidyl]-4-oxo-but-2-enoxy]ethoxy]ethylsulfamoyl]anilino]-5-bromo-pyrimidin-4-yl]amino]-6-fluoro-benzamide], the Kd in test [1] fell in the range of 50 to 500 nM; in test [3] it was 500 to 2500 nM.

For the compound `NC(=O)c1c(F)cccc1Nc1nc(Nc2ccc(S(=O)(=O)NCCOCCOCCOCCOCCOCCOC/C=C/C(=O)N3CCC[C@@H](n4nc(-c5ccc(Oc6ccccc6)cc5)c5c(N)ncnc54)C3)cc2)ncc1Br` [Compound I-15], the Kd is less than 50 nM in test [1] and 50 to 500 nM in test [3].

With `CN(C/C=C/C(=O)N1CCC[C@@H](n2nc(-c3ccc(Oc4ccccc4)cc3)c3c(N)ncnc32)C1)CCCN1CCN(CCCNS(=O)(=O)c2ccc(Nc3ncc(Br)c(Nc4cccc(F)c4C(N)=O)n3)cc2)CC1` [Compound I-18, 2-[[2-[4-[3-[4-[3-[[(E)-4-[(3R)-3-[4-amino-3-(4-phenoxyphenyl)pyrazolo[3,4-d]pyrimidin-1-yl]-1-piperidyl]-4-oxo-but-2-enyl]-methyl-amino]propyl]piperazin-1-yl]propylsulfamoyl]anilino]-5-bromo-pyrimidin-4-yl]amino]-6-fluoro-benzamide], the Kd in test [1] and in test [3] was less than 50 nM each time.

On to `Cc1sc2c(c1C)C(c1ccc(Cl)cc1)=N[C@@H](CC(=O)NCCOCCOC/C=C/C(=O)N1CCC[C@@H](n3nc(-c4ccc(Oc5ccccc5)cc4)c4c(N)ncnc43)C1)c1nnc(C)n1-2` [Compound I-24, N-[2-[2-[(E)-4-[(3R)-3-[4-amino-3-(4-phenoxyphenyl)pyrazolo[3,4-d]pyrimidin-1-yl]-1-piperidyl]-4-oxo-but-2-enoxy]ethoxy]ethyl]-2-[(9S)-7-(4-chlorophenyl)-4,5,13-trimethyl-3-thia-1,8,11,12-tetrazatricyclo[8.3.0.02.6]trideca-2 (6),4,7,10,12-pentaen-9-yl]acetamide], for which the Kd in test [4] is less than 50 nM; in test [1], less than 50 nM; in test [5], 50 to 500 nM.

Regarding `Cc1sc2c(c1C)C(c1ccc(Cl)cc1)=N[C@@H](CC(=O)NCCOCCOCCOCCOCCOCCOC/C=C/C(=O)N1CCC[C@@H](n3nc(-c4ccc(Oc5ccccc5)cc4)c4c(N)ncnc43)C1)c1nnc(C)n1-2` [Compound I-26, N-[2-[2-[2-[2-[2-[2-[(E)-4-[(3R)-3-[4-amino-3-(4-phenoxyphenyl)pyrazolo[3,4-d]pyrimidin-1-yl]-1-piperidyl]-4-oxo-but-2-enoxy]ethoxy]ethoxy]ethoxy]ethoxy]ethoxy]ethyl]-2-[(9S)-7-(4-chlorophenyl)-4,5, 13-trimethyl-3-thia-1,8, 11,12-tetrazatricyclo[8.3.0.0^2,6]trideca-2 (6),4,7,10, 12-pentaen-9-yl]acetamide], the Kd in test [4] is less than 50 nM; in test [1], less than 50 nM; in test [5] it was 50 to 500 nM.

Turning to `Cc1sc2c(c1C)C(c1ccc(Cl)cc1)=N[C@@H](CC(=O)NCCCCCCCC/C=C/C(=O)N1CCC[C@@H](n3nc(-c4ccc(Oc5ccccc5)cc4)c4c(N)ncnc43)C1)c1nnc(C)n1-2` [Compound I-28, N—[(E)-11-[(3R)-3-[4-amino-3-(4-phenoxyphenyl)pyrazolo[3,4-d]pyrimidin-1-yl]-1-piperidyl]-11-oxo-undec-9-enyl]-2-[(9S)-7-(4-chlorophenyl)-4,5,13-trimethyl-3-thia-1,8,11,12-tetrazatricyclo[8.3.0.0^2,6]trideca-2 (6),4,7,10,12-pentaen-9-yl]acetamide], the Kd was 500 to 2500 nM in test [4], 500 to 2500 nM in test [1] and greater than 2500 nM in test [5].

As for `Cc1sc2c(c1C)C(c1ccc(Cl)cc1)=N[C@@H](CC(=O)NCCCN1CCN(CCCN(C)C/C=C/C(=O)N3CCC[C@@H](n4nc(-c5ccc(Oc6ccccc6)cc5)c5c(N)ncnc54)C3)CC1)c1nnc(C)n1-2` [Compound I-29, N-[3-[4-[3-[[(E)-4-[(3R)-3-[4-amino-3-(4-phenoxyphenyl)pyrazolo[3,4-d]pyrimidin-1-yl]-1-piperidyl]-4-oxo-but-2-enyl]-methyl-amino]propyl]piperazin-1-yl]propyl]-2-[(9S)-7-(4-chlorophenyl)-4,5, 13-trimethyl-3-thia-1,8, 11,12-tetrazatricyclo[8.3.0.0^2,6]trideca-2 (6),4,7,10,12-pentaen-9-yl]acetamide], the Kd in test [4], in test [1] and in test [5] was less than 50 nM in each case.

Regarding `Cc1sc2c(c1C)C(c1ccc(Cl)cc1)=N[C@@H](CC(=O)NCCOCCOCCOc1ccc(C(=O)NC3C(C)(C)C(Oc4ccc(C#N)c(Cl)c4)C3(C)C)cc1)c1nnc(C)n1-2` (some centres unmarked) [Compound I-32], the figures for the Kd in test [4] and in test [5] were 50 to 500 nM and 500 to 2500 nM, respectively.

For `CCc1cnn2c(NCc3ccc(OCCOCCOCCOCCOCCN(C)C/C=C/C(=O)N4CCC[C@@H](n5nc(-c6ccc(Oc7ccccc7)cc6)c6c(N)ncnc65)C4)nc3)cc(N3CCCC[C@H]3CCO)nc12` [Compound I-43], the Kd in test [1] is less than 50 nM; in test [3], greater than 2500 nM.

Regarding `CCc1cnn2c(NCc3ccc(OCCOCCOCCOCCOCCOCCOCCOCCOCCOC/C=C/C(=O)N4CCC[C@@H](n5nc(-c6ccc(Oc7ccccc7)cc6)c6c(N)ncnc65)C4)nc3)cc(N3CCCC[C@H]3CCO)nc12` [Compound I-47], in test [3], the Kd was greater than 2500 nM.

What is called IC50 is the point on the concentration scale where inhibition reaches its midpoint. Read a low IC50 as greater potency in that assay. As for `CN(OCCOCCOCCOCCOCCOC/C=C/C(=O)N1CCC[C@@H](n2nc(-c3ccc(Oc4ccccc4)cc3)c3c(N)ncnc32)C1)C(=O)N1N=C(c2cc(F)ccc2F)SC1(CCCN)c1ccccc1` (some centres unmarked) [Compound I-49], in test [6], the IC50 lay in the range of 50 to 500 nM.
